Source: publication PMC4473678, “Swedish mutant APP-based BACE1 binding site peptide reduces APP β-cleavage and cerebral Aβ levels in Alzheimer’s mice” (Scientific Reports, 2015)
Entries after “also recorded” stand apart in the source; their conditions may differ.

What was measured:
[1] = phase II, suspended June 2013; cited from earlier work
From the text: Although these BACE1-null abnormalities are relatively mild, they are complex neurological phenotypes that raise a concern that complete inhibition or entire absence of BACE1 function may not be fre ...

treated patients = conditions: Phase III; cited from earlier work
From the text: Presenilin 1 and 2 (PS1/PS2), two integral membrane proteins found in the endoplasmic reticulum and Golgi apparatus, are the major enzymatic targets for γ-secretase inhibition for the treatment of AD[5]. However, apart from their roles in AD, PS1/PS2 also controls the Notch signaling pathway responsible for cell proliferation and differentiation during embryonic development. PS1/PS2-null mice have massive neuronal loss, skeletal defects, underdeveloped subventricular areas and severe hemorrhages, and only a few types of PS1/PS2-null mouse models survive after birth. Other subst ...

[2] = target: recombinant BACE1 protein (β-site APP cleaving enzyme 1) (UniProt P56817)
Sequence of recombinant BACE1 protein (β-site APP cleaving enzyme 1) (P56817 46-501): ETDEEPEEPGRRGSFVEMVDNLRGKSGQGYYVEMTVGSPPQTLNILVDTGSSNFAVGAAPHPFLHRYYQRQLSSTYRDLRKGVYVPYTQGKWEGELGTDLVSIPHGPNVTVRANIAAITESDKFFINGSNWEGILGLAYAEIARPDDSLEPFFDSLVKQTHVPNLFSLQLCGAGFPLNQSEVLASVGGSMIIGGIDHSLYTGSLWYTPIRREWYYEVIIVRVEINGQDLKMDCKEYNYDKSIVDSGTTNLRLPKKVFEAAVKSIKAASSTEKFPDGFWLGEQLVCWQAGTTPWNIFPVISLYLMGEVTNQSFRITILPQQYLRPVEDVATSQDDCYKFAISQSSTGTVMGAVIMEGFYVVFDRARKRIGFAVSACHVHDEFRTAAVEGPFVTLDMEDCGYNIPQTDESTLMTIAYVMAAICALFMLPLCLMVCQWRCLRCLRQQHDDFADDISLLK

recombinant BACE1 = experiment: BACE1 activity (FRET) assay, cell-free; format: biochemical; conditions: for % of Inhibition of BACE1: FRET substrate Rh-EVNLDAEFK-quencher, dark, ex 545/em 585 nm, mean ± SD
Experimental: The BACE1 inhibiting activity of APP-based BACE1 site binding peptides were determined using a fluorescence resonance energy transfer (FRET) assay (Pan Vera Co., Madison, WI), which employs a recombinant baculovirus-expressed BACE1 and a specific substrate (Rh-[…]-quencher) that is based on the APPswe mutation. This specific peptide substrate becomes highly fluorescent upon enzymatic cleavage. […] Then, 10 μL of BACE1 stop buffer (2.5 M sodium acetate) was added to the mixture. Fluorescence was read using a fluorometer, with excitation at 545 nm and emission at 585 nm.

brain of 5XFAD mice = conditions: mouse, in vivo
Experimental: 5XFAD mice at 2 months of age (n = 5, female) were treated intraperitoneally with biotin-labeled TAT-APPsweBBP or APPsweBBP (100 nmol/kg) daily for 5 days and then euthanized 4 h after the last injection. Brain tissues were removed, sectioned and stained with anti-BACE1 and anti-biotin antibodies.
Fixed cell cultures and brain sections were stained with indicated antibodies and then treated with donkey anti-mouse IgG conjugated with Alexa Fluor 488 (1:200) or goat anti-rabbit IgG conjugated with Alexa Fluor 594 (1:200; Invitrogen, Carlsbad, CA). The slides were then washed, mounted with DAPI medium (Vector Laboratories, Burlingame, CA) and visualized with an Olympus FV1000 confocal microscope (Tokyo, Japan).

BACE1 = conditions: cited from earlier work
[3] = system: recombinant BACE1 protein; experiment: Immunoprecipitation/WB of peptide-BACE1 binding, cell-free; conditions: 10 μg biotin-labeled peptide with 10 μL recombinant BACE1 (1.0 U/mL), 4 h, 37 °C; anti-BACE1 IP/anti-biotin WB and reverse
Experimental: In order to confirm that APPsweBBP containing the β-cleavage site could bind to and be consequently proteolyzed by BACE1, 10 μg of biotin-labeled TAT-APPsweBBP was incubated with or without 10 μL of recombinant BACE1 protein (1.0 U/mL) in BACE1 reaction buffer for 4 h at 37 °C and then subjected to WB analysis as described previously. In addition, we performed immunoprecipitation (IP) and WB analyses of this mixture with anti-BACE1 and anti-biotin antibodies to confirm that TAT-APPsweBBP, but not TAT, specifically binds to BACE1.

WT mice [4] = experiment: Radial arm water maze (RAWM), WT mice; format: in vivo, mouse; conditions: 100 nmol/kg i.p. daily, 8 weeks, n = 10 per treatment
5XFAD mice [5] = experiment: Rotarod test, 5XFAD mice; format: in vivo, mouse; conditions: 100 nmol/kg i.p. daily, 8 weeks, n = 10 per treatment
Experimental: (§1) Transgenic AD mice [5XFAD; B6SJL-Tg(APPSwFlLon,PSEN1*M146L*L286V) 6799Vas/Mmjax] at 2.5 months of age were obtained from the Jackson Laboratory (Bar Harbor, ME) and housed and maintained in the Animal Facility of College of Medicine at University of South Florida (USF). The mice at 3.5 months of age were treated with TAT-APPsweBBP, TAT peptide (100 nmol/kg in 100 μL PBS) or PBS (100 μL) daily by intraperitioneal injection (i.p.) for eight consecutive weeks. The mice were subjected to behavioral testing after 8-week treatment and then euthanized for immunohistochemical, WB and ELISA analyses. Animals were housed and maintained at USF and all experiments were in compliance with protocols approved by USF Institutional Animal Care and Use Committee. All methods were performed in accordance with relevant guidelines and regulations.
The rotarod task was also performed to exclude the possibility that positive effects of any treatment in RAWM test are due to improvements in sensorimotor ability. Mice were positioned on the rod (diameter 3.6 cm) of the equipment (Rotarod 7650 accelerating model; Ugo Basile, Biological Research Apparatus, Varese, Italy), which was initially set at 1.0 rpm. The rod was then allowed to steadily accelerate up to 40.0 rpm over a 3-min session and evaluation was made by monitoring latency to fall.

WT mice [6] = experiment: Rotarod test, WT mice; format: in vivo, mouse; conditions: 100 nmol/kg i.p. daily, 8 weeks, n = 10 per treatment
Akt and MBP = experiment: WB of myelin signaling (Akt, MBP) in brain homogenates, 5XFAD mice; format: in vivo, mouse; conditions: TAT-APPsweBBP, TAT and PBS groups compared
Experimental: as §1
WB analysis was performed as previously described. Briefly, the proteins from the various cell-free suspensions, cell lysates and brain homogenates were electrophoretically separated using 10% bicine/tris gel (8 M urea) for proteins less than 5 kD or 10% tricine/tris gels for larger proteins. Electrophoresed proteins were transferred to polyvinylidene difluoride membranes (Bio-Rad, Richmond, CA), washed and blocked for 2 h at room temperature in Tris-buffered saline containing 5% (w/v) nonfat dry milk (TBS/NFDM). […]

5XFAD mice [7] = experiment: β-amyloid immunohistochemistry (4G8), 5XFAD mice; format: in vivo, mouse; conditions: 100 nmol/kg i.p. daily, 8 weeks, RSC, EC and H regions, n = 10, 5 female/5 male
Experimental: as §1
For paraffin brain tissues, we sectioned five coronal sections per region with a 100-μm interval and a thickness of 5-μm for retrosplenial cortex (RSC), entorhinal cortex (EC), and hippocampus (H), located at bregma −2.92 to −3.64 mm. […] Images were acquired as digitized tagged-image format files (to retain maximum resolution) using a BX60 microscope with an attached CCD camera system (DP-70, Olympus, Tokyo, Japan), and digital images were routed into a Windows PC for quantitative analyses using SimplePCI software (Hamamatsu Photonics, Hamamatsu, Shizuoka, Japan). […]

[8] = peptide final concentration 20 μM, 90 min, room temperature

Question: With `NC1=N[C@@]2(c3cc(NC(=O)c4ccc(F)cn4)ccc3F)COC[C@H]2CS1` [LY2886721] as the molecule, how does the liver toxicity [1] read?
Answer: possible liver toxicity

Question: For `CC(C)[C@H](O)C(=O)N[C@@H](C)C(=O)N[C@@H]1C(=O)N(C)CCc2ccccc21` [semagacestat], which “activities of daily living and cognition” value (treated patients) is on record?
Answer: activities of daily living and cognition even worsened in the treated patients

Question: Which percent inhibition of BACE1 activity in a cell-free FRET assay (substrate Rh-…-quencher), peptide at 20 μM [2] does the source give for “APPswe BACE1 binding site peptide (APPsweBBP) (from UniProt P05067 665-676)” here?
Answer: 38.4%

Question: Which percent inhibition of BACE1 activity in a cell-free FRET assay (substrate Rh-…-quencher), peptide at 20 μM [2] does the source give for “APPwt BACE1 binding site peptide (APPwtBBP)” here?
Answer: 16.2%

Question: Which “% of Inhibition of BACE1” value (recombinant BACE1; [8]) does the source give for EISEVKMDAEFR here?
Answer: 16.23 ± 0.29%

Question: Which “BACE1 inhibition (result in words)” value (recombinant BACE1; FRET assay, APPsweBBP or TAT-APPsweBBP at 0.05, 0.5, 5 and 20 μM (Fig. 1)) does the source give for EISEVNLDAEFR here?
Answer: strongly inhibits BACE1 activity; also recorded: competitively inhibits the cleavage of commercial BACE1 substrate; also recorded: most effective BACE1 inhibitor; also recorded: much greater

Question: What about the “percentage inhibition of BACE1” value (recombinant BACE1; FRET assay, peptide final concentration 20 μM, 90 min, room temperature) of the same molecule?
Answer: ~ 40%

Question: And the “% of Inhibition of BACE1” value (recombinant BACE1; [8])?
Answer: 38.43 ± 1.01%

Question: What about the “BBB penetration (Fig. S4 legend)” value (brain of 5XFAD mice) of the same molecule?
Answer: stopped at the capillary lumen

Question: What about the “biotin distribution, 5XFAD versus WT control mice” value (brain of 5XFAD mice; ip) of the same molecule?
Answer: No noticeable differences in biotin distribution

Question: Which “% of Inhibition of BACE1” value (recombinant BACE1; [8]) does the source give for EVKMDAEFR here?
Answer: 4.89 ± 0.06%

Question: Which results are given for EVNLA*AEF [OM99-2]?
Answer: BBB crossing (BACE1): too large to cross the BBB; potency (BACE1): high level of potency; stability (BACE1): not stable enough for use in therapeutic trials

Question: With EVNLDAEFR as the molecule, how does the “% of Inhibition of BACE1” value (recombinant BACE1; [8]) read?
Answer: 14.32 ± 0.04%

Question: With “TAT-APPwtBBP (APPwt BACE1 binding site peptide fused with TAT)” as the molecule, how does the percent inhibition of BACE1 activity in a cell-free FRET assay (substrate Rh-…-quencher), peptide at 20 μM [2] read?
Answer: 21%

Question: Which results are given for “YGRKKRRQRRR [TAT (YGRKKRRQRRR), reference compound]”?
Answer: % of Inhibition of BACE1 (recombinant BACE1; [8]): 3.32 ± 0.02%; binding to BACE1 (co-immunoprecipitation) [3]: but not TAT peptide, binds to BACE1; RAWM entry-arm errors (WT mice [4]): no difference among the various treatment groups; rotarod latency to fall / motor performance (5XFAD mice [5]): no differences between treatment groups on each day; rotarod latency to fall (WT mice [6]): no differences between treatment groups on each day; Akt (total/phosphorylated) in brain homogenates (Akt and MBP): differ between TAT-APPsweBBP-, TAT- and PBS-treated 5XFAD mice; myelin basic protein (MBP) expression in brain homogenates (Akt and MBP): differ between TAT-APPsweBBP-, TAT- and PBS-treated 5XFAD mice; β-amyloid plaques / 4G8 immunoreactive area (5XFAD mice [7]): no significant difference between TAT peptide and PBS groups

Question: Which “% of Inhibition of BACE1” value (recombinant BACE1; [8]) does the source give for “YGRKKRRQRRREISEVKMDAEFR [APPwtBBP fused with TAT]” here?
Answer: 21.01 ± 1.42%

Question: With “biotin-labeled TAT-APPsweBBP (human Swedish mutant APP BACE1 binding site peptide conjugated to the HIV-1 TAT protein-transduction domain) (from UniProt P05067 665-676)” as the molecule, how does the percent inhibition of BACE1 activity in a cell-free FRET assay (substrate Rh-…-quencher), peptide at 0.05, 0.5, 5 and 20 μM [2] read?
Answer: > 90%
